Results as given in patent US11084807B2, “Piperazine derivatives, pharmaceutical compositions and methods of use thereof” (Vidac Pharma Ltd., priority 2016, dated 2021).
Where two headings read alike, the source gives them in different places.

What was measured:
Type in all cases: cell-based
[1] = tested on: H358 Human lung carcinoma cell-line; experiment: XTT cytotoxicity, H358 lung carcinoma cells
Procedure: (§1) The piperazine-derivatives were prepared as a stock of 50 mM in 100% DMSO (dimethyl sulfoxide). Piperazine-derivatives were added at concentration ranging from 0.03-10 uM for 72 hours. Each experimental point was performed in triplicates. Vehicle (DMSO)-treated cells were used as control. Dilutions were performed in culture medium and DMSO so that the final concentration of DMSO in each well was 0.5%.
(§2) Optical density representing viable cells was determined using the XTT Cell Proliferation Kit assay (sodium 2,3,-bis(2-methoxy-4-nitro-5-sulfophenyl)-5-[(phenylamino)-carbonyl]-2H-tetrazolium inner salt, Biological industries, Beit-Haemek, Israel).
(§3) Percentage of Optical density is directly proportional to the number of living cells in culture. Cytotoxicity (%) was calculated in the following way: [(OD of drug-treated cells-OD of background)/(OD of control cells-OD of background)]×100.
(§4) New piperazine derivatives were tested for cytotoxicity in 4 cancer cell lines:
C) H358—Human lung carcinoma cell-line
New piperazine derivatives (compounds of Formula (IV)) were tested for cytotoxicity in the H358 human lung carcinoma cell line. Table 2 below provides IC50 values for the tested compounds.
New piperazine derivatives (compounds of Formula (V)) were tested for cytotoxicity in the H358 human lung carcinoma cell line. Table 3 below provide IC50 values for the tested compounds.

PC3 prostate cancer line = experiment: Cytotoxicity, PC3 prostate cancer cells; settings: 25 mM glucose, 1500 cell/well, 10% FCS, 72 hours, read-out: IC50 (μM), prostate cancer cell line (Table 4)
[2] = tested on: Hela Human cervix adenocarcinoma cell-line; experiment: XTT cytotoxicity, Hela cervix adenocarcinoma cells; settings: 72 hr
Procedure: as §1, §2, §3, §4
B) Hela—Human cervix adenocarcinoma cell-line

[3] = tested on: HCT116 Human colon carcinoma cell-line; experiment: XTT cytotoxicity, HCT116 colon carcinoma cells; settings: HCT-116, 72 hr
Procedure: as §1, §2, §3, §4
A) HCT116—Human colon carcinoma cell-line

[4] = tested on: Panc-1 Human pancreatic carcinoma cell-line; experiment: XTT cytotoxicity, Panc-1 pancreatic carcinoma cells; settings: Panc-1, XTT, 72 hr
Procedure: as §1, with “Piperazine-derivatives were added at concentration ranging from 0.03-10 uM for 72 hours.” left out
as §2, §3, §4
D) Panc-1—Human pancreatic carcinoma cell-line

[5] = NCI-H358, H358 lung cancer line, 11.5 mM glucose, 5000 cell/well, 0.5% FCS, 72 hours, read-out: IC50 (μM), lung cancer cell line (Table 3)
[6] = NCI-H358, H358, XTT, 72 hr (Table 1), read-out: IC50 (XTT, 72 hr) Lung H358
[7] = NCI-H358, H358 lung cancer line, 11.5 mM glucose, 5000 cell/well, 0.5% FCS, 72 hours, read-out: IC50 (μM), lung cancer cell line (Table 2)

| Structure (SMILES) | IC50 [1, 7] | IC50 [2] | IC50 [4] | further results |
| --- | --- | --- | --- | --- |
| O=C(N1CCN(c2cc(F)cc(F)c2)CC1)n1c2ccccc2c2ccccc21 [Compound 23] | – | – | – | IC50 [1, 5]: 0.009 µM; IC50 (PC3 prostate cancer line): 0.08 µM |
| O=C(N1CCN(c2c(F)cccc2F)CC1)N1c2ccccc2Oc2ccccc21 [Compound 5] | 0.265 µM | 400 nM | 900 nM | IC50 [1, 6]: 0.84 µM; IC50 [3]: 1080 nM |
| O=C(N1CCN(c2ccc(O)cc2)CC1)N1c2ccccc2Oc2ccccc21 [Compound 14] | 0.051 µM | – | – | – |
| COc1ccccc1N1CCN(C(=O)N2c3ccccc3Oc3ccccc32)CC1 [Compound 12] | 0.0066 µM | – | – | – |
| O=C(N1CCN(c2ccccc2)CC1)N1c2ccccc2Oc2ccccc21 [Compound 1] | 0.025 µM | 15 nM | 10 nM | IC50 [1, 6]: 0.05 µM; IC50 [3]: 10 nM; IC50 (PC3 prostate cancer line): 0.026 µM |
| COc1cccc(N2CCN(C(=O)N3c4ccccc4Oc4ccccc43)CC2)c1 [Compound 11] | 0.0047 µM | – | – | – |
| O=C(N1CCN(c2cc(F)cc(F)c2)CC1)N1c2ccccc2Oc2ccccc21 [Compound 13] | 0.0067 µM | – | – | – |
| O=C(N1CCC(c2ccccc2)CC1)N1c2ccccc2Oc2ccccc21 [Compound 16] | 1.37 µM | – | – | – |
| O=C(N1CCN(c2ccc(F)cc2)CC1)N1c2ccccc2Oc2ccccc21 [Compound 15] | 0.24 µM | – | – | – |
| O=C(N1CCN(c2c(F)c(F)c(F)c(F)c2F)CC1)N1c2ccccc2Oc2ccccc21 [Compound 2] | > 10 µM | 1900 nM | > 30000 nM | – |
| O=C(N1CCN(c2ccccc2)CC1)n1c2ccccc2c2ccccc21 [Compound 20] | – | – | – | IC50 [1, 5]: 0.027 µM |
| O=C(C1c2ccccc2Sc2ccccc21)N1CCN(c2ccccc2)CC1 [Compound 3] | 0.43 µM | 500 nM | 310 nM | IC50 [1, 6]: 1.35 µM; IC50 [3]: 640 nM |
